# Experimental data from patent publication US10160705B2, “Class of HDAC inhibitors expands the renal progenitor cells population and improves the rate of recovery from acute kidney injury” (University of Pittsburgh—Of the Commonwealth System of …, priority 2011, dated 2018).
# Read-outs that look alike come from different tables or passages of the source.
# Experiments:
# [1] = system: mesodermal markers myod1, fli1a, and ntla; experiment: In situ hybridization for the mesodermal markers myod1, fli1a and ntla in 10-somite embryos; format: in vivo, zebrafish
# Procedure: (§1) PTBA was synthesized as described below. Hydroxyurea and aphidicolin were obtained from Sigma-Aldrich.
# (§2) In situ hybridization and immunocytochemistry: In situ hybridization was performed as previously described with some modifications.142 Hybridization temperature was 65° C. Embryos were blocked in 2% blocking reagent (Roche) with 5% sheep serum in MAB (100 mM maleic acid and 150 mM NaCl [pH 7.5]). Whole-mount immunocytochemistry with 1:25 mouse anti-α6F antibody (Developmental Studies Hybridoma Bank) and 1:100 Cy3 secondary antibody (Jackson ImmunoResearch) was performed as described previously.108 Embryos were embedded in JB-4 for sectioning per the manufacturer's instructions (Polysciences), sectioned at 5 μm, and mounted with Cytoseal 60 (Richard-Allan Scientific).
# human HDACs = experiment: Fluorescence histone deacetylation assay with HeLa cell nuclear extract; format: biochemical
# Procedure: To evaluate this in vitro, the deacetylation of a fluorescent peptide substrate was measured in the presence of human HDACs.
# In vitro HDAC activity assays were performed using a fluorescence HDAC assay kit (Active Motif) according to the manufacturer's instructions. For maintaining compound solubility at 5 mM, the final DMSO concentration in all assay wells was increased to 5%. Fluorescence was detected using an M5 Plate Reader ([…])
# zebrafish embryos = experiment: Phenotypic screen for edema and survival in zebrafish larvae at 72 hpf; details: for Dead / Edemic 1 (E1) / Edemic 2 (E2) / Edemic 3 (E3) / Wild-type (WT): number of larvae (of 36), 3 μM from 2 hpf, scored at 72 hpf; for phenotype in initial chemical screen: 10 μM, larvae at 72 hpf
# Procedure: The screen was performed in zebrafish embryos using the National Cancer Institute's Developmental Therapeutics Program (NCI/DTP) Diversity Set I. This library contains 1990 compounds selected by pharmacophore modeling to represent the more than 140,000 small molecules maintained in the NCI/DTP Open Repository. Compounds from the NCI/DTP Diversity Set I were diluted to 10 μM in E3 embryo medium (5 mM NaCl, 0.33 mM CaCl2, 0.33 mM MgSO4, and 0.17 mM KCl) in a final DMSO concentration of 0.5% and arrayed in 96-well plates. Beginning at approximately 2 hpf, embryos were transferred to each well in groups of five using a glass pipette. The plates were incubated at 28.5° C. for 70 hours. Individual wells were then scored for a dominant phenotype, representative of at least four of the five embryos. The primary objective was to identify compounds that caused edema in treated embryos at 72 hpf. Small molecules generating edema were retested once for verification, before obtaining additional compound from the NCI/DTP Open Repository.
# PTBA was synthesized as described below. Hydroxyurea and aphidicolin were obtained from Sigma-Aldrich. Groups of 20 to 30 chorionated 2 hpf embryos were arrayed in individual wells of 12-well plates. E3 medium was removed with a glass pipette and replaced with 1.5 ml treatment solutions containing 0.5% DMSO in E3 with or without compound at the reported concentrations. Treatments for all studies were initiated at 2 hpf, except for the temporal studies (FIG. 6) and the HUA studies (FIG. 11). HUA studies were performed as described previously (Zhang, L., et al. Cell cycle progression is required for zebrafish somite morphogenesis but not segmentation clock function. Development 135, 2065-2070, (2008)), with the following modifications. HUA in 0.5% DMSO was added at early gastrulation (5 hpf) and PTBA was subsequently added at late gastrulation (8 hpf) to allow for penetration of the proliferation inhibitors. All embryos were incubated at 28.5° C. until the required developmental stage.
# Following 70 hours of treatment (as described above), edemic phenotypes in 72 hpf larvae were scored using a phenotype-based classification system. Wild type: no visible edema or developmental delay. […] Significant effects (p<0.05) on survival were determined by two-tailed Fisher's exact test in comparison with the 0 μM PTBA treatment group.
# PTBA and methyl-4-(phenylthio)butanoate were synthesized as described above. 4-(Naphthalen-2-ylthio)butanoic acid (NSC2733) and 3-(phenylthio)benzoic acid (NSC113994), were obtained from the NCI/DTP Open Repository. APHA compound 8, Apicidin, butanoic acid, PBA, 4-phenoxybutanoic acid, 5-phenylpentanoic acid, Scriptaid, TSA, and valproic acid were obtained from Sigma-Aldrich. MS-275 and SAHA were obtained from Cayman Chemical Co. 4-(phenylsulfonyl)butanoic acid was obtained from Matrix Scientific. Tubacin was a gift of Dr. Ralph Mazitschek of the Broad Institute (Cambridge, Mass.). The remaining PTBA analogs were synthesized. Three independent groups of 12 chorionated 2 hpf embryos were arrayed in individual wells of 24-well plates. E3 medium was removed with a glass pipette and replaced with 800 μl treatment solutions containing 0.5% DMSO in E3 with or without compound at the reported concentrations.
# Phenotypic screening of PTBA analogs was performed identically to the concentration-response experiments detailed above. Embryos were treated with each PTBA analog from 2 to 72 hpf as described above.
# histone H4 = experiment: Histone H4 hyperacetylation Western blot in treated embryos; format: in vivo, zebrafish; details: 24 hpf embryos, 6 hours; 3 μM PTBA, 25 μM PBA, 200 nM TSA
# Procedure: It was next determined whether the HDACi function of PTBA was quantifiable in vivo. 24 hpf embryos were treated with 3 μM PTBA, 25 μM PBA, or 200 nM TSA for 6 hours. Protein extracts were prepared and immunoblotted with an anti-hyperacetylated histone H4 antibody. […] Furthermore, increasing the compound concentration caused a corresponding increase in hyperacetylation (FIG. 21).
# SDS-PAGE and Western blotting were performed as described previously with some modifications (Noel, E. S. et al. Organ-specific requirements for Hdac1 in liver and pancreas formation. Dev Biol 322, 237-250, (2008)). Proteins were separated on 18% SDS-PAGE gels. Membranes were incubated at 4° C. overnight with 1:1000 anti-hyperacetylated histone H4 antibody (06-946, Millipore) or 1:1000 anti-α-tubulin antibody (Sigma-Aldrich) in PBT containing 5% nonfat milk.
# renal progenitor cells = experiment: In situ hybridization for lhx1a expression in 10-somite embryos (renal progenitor cell expansion); format: in vivo; details: for Lhx1a expansion caused by analog treatment, 400 nM: 400 nM from 2 hpf; for Lhx1a expansion caused by analog treatment, 800 nM: 800 nM from 2 hpf; for Lhx1a expansion caused by analog treatment, 100 nM: key: effective (+); partially effective (+/−); ineffective (−); Analogs that killed all embryos at a given concentration before reaching 10 somites are listed as XX; for Lhx1a expansion caused by analog treatment, 200 nM: key: effective (+); partially effective (+/−); ineffective (−); Analogs that killed all embryos at a given concentration before reaching 10 somites are listed as XX; for Lhx1a expansion caused by analog treatment, 3 μM: key: effective (+); partially effective (+/−); ineffective (−); Analogs that killed all embryos at a given concentration before reaching 10 somites are listed as XX; for Lhx1a expansion caused by analog treatment, 400 nM: key: effective (+); partially effective (+/−); ineffective (−); Analogs that killed all embryos at a given concentration before reaching 10 somites are listed as XX
# Procedure, shortened: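 Zebrafish embryos treated with compound, then colorimetric whole-mount in situ hybridization (65° C) for lhx1a mRNA at 10 somites. Embryos with expanded kidney field counted manually as percent of total. EC50 taken as 50% point of percent-expansion trendline; compounds also classed effective, partial or ineffective versus PTBA at matched concentration.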
# kidney field = experiment: In situ hybridization for kidney markers (pax2a, pax8, cdh17, wt1a, slc4a4, slcl2a1); format: in vivo, zebrafish; details: in situ hybridization, data not shown
# Procedure: as §1, §2
# [2] = cited from earlier work
# [3] = 100 nM from 2 hpf, 10-somite embryos
# [4] = 200 nM from 2 hpf, 10-somite embryos
# [5] = 3 μM from 2 hpf, 10-somite embryos
# [6] = Danio rerio, 3 μM from 2 hpf, 10-somite embryos, read-out: lhx1a expansion, percent of treated embryos
structure (smiles),measurement,setting,value
"CC(/C=C/C(=O)NO)=C\[C@@H](C)C(=O)c1ccc(N(C)C)cc1 [TSA, trichostatin A, reference compound]","normal ntla expression disrupted, percent of treated embryos",[1]; 200 nM,86%
same,"myod1 expression decreased, percent of treated embryos","[1]; 3 μM PTBA (slightly decreased), 25 μM PBA, 200 nM TSA",100%
same,"fli1a expression decreased, percent of treated embryos","[1]; 25 μM PBA, 200 nM TSA",95%
same,HDAC activity,"human HDACs; 1 μM TSA, all input levels of nuclear extract",completely blocked activity
same,treated 72 hpf larvae killed,zebrafish embryos; 300 nM,greater than 90%
same,larvae with edemic phenotype / pericardial edema by 72 hpf,"zebrafish embryos; 3 μM PTBA, 25 μM PBA, 200 nM TSA",100%
same,death by 72 hpf,"zebrafish embryos; 25 μM PBA, 200 nM TSA, n=90",61%
same,Dead,zebrafish embryos,36
same,Edemic 1 (E1),zebrafish embryos,0
same,Edemic 2 (E2),zebrafish embryos,0
same,Edemic 3 (E3),zebrafish embryos,0
same,Wild-type (WT),zebrafish embryos,0
same,histone H4 hyperacetylation,histone H4,Histone H4 hyperacetylation was observed
same,"Lhx1a expansion caused by analog treatment, 100 nM",renal progenitor cells; [3],+
same,"lhx1a expansion, percent of treated embryos",renal progenitor cells; [3],97%
same,"Lhx1a expansion caused by analog treatment, 200 nM",renal progenitor cells; [4],+
same,"lhx1a expansion, percent of treated embryos",renal progenitor cells; [4],100%
same,lethality before reaching 10 somites,renal progenitor cells; 400 nM,died before reaching 10 somites
same,treated embryos killed,renal progenitor cells; 800 nM,lethal
same,lethality before the 10-somite stage,renal progenitor cells; 1.5 μM,lethal
same,lethality before the 10-somite stage,renal progenitor cells; 3 μM,killed all treated embryos
same,concentration producing an expansion of lhx1a expression consistent with 3 μM PTBA,"renal progenitor cells; concentration-response, 10-somite embryos",200 nM
N=C(N)SCc1ccc(Cl)cc1Cl.O=[N+]([O-])c1c(O)c(Cl)cc(Cl)c1Cl [NSC35400],size of the kidney field,kidney field,did not affect the size of the kidney field
same,phenotype in initial chemical screen,zebrafish embryos,pericardial edema
"O=C(O)CCCS(=O)(=O)c1ccccc1 [PSOBA, 4-(phenylsulfonyl)butanoic acid, reference compound]","HDAC activity elicited by 10 μg HeLa extract, percent of the control value",human HDACs; 5 mM compound,70%
same,Dead,zebrafish embryos,0
same,Edemic 1 (E1),zebrafish embryos,0
same,Edemic 2 (E2),zebrafish embryos,0
same,Edemic 3 (E3),zebrafish embryos,0
same,Wild-type (WT),zebrafish embryos,36
same,"Lhx1a expansion caused by analog treatment, 3 μM",renal progenitor cells; [5],−
same,"lhx1a expansion, percent of treated embryos",renal progenitor cells; [5],no ability to expand renal progenitor cells
COc1ccc(/C=C(\C#N)C(N)=O)c(OC)c1 [NSC134664],size of the kidney field,kidney field,did not affect the size of the kidney field
same,phenotype in initial chemical screen,zebrafish embryos,pericardial edema
"COC(=O)CCCSc1ccc(C)cc1 [UPHD-00026, methyl 4-[(4-methyl-phenyl)sulfanyl]butanoate]",Dead,zebrafish embryos,11
same,Edemic 1 (E1),zebrafish embryos,0
same,Edemic 2 (E2),zebrafish embryos,2
same,Edemic 3 (E3),zebrafish embryos,23
same,Wild-type (WT),zebrafish embryos,0
same,"Lhx1a expansion caused by analog treatment, 200 nM",renal progenitor cells; [4],−
same,"Lhx1a expansion caused by analog treatment, 400 nM",renal progenitor cells; 10-somite embryos,−
same,"Lhx1a expansion caused by analog treatment, 800 nM",renal progenitor cells; 10-somite embryos,+
same,"Lhx1a expansion caused by analog treatment, 1.5 μM","renal progenitor cells; 1.5 μM from 2 hpf, 10-somite embryos",+
same,"Lhx1a expansion caused by analog treatment, 3 μM",renal progenitor cells; [5],+
same,responders at 1.5 µM,"renal progenitor cells; Danio rerio, 1.5 μM from 2 hpf, 10-somite embryos, read-out: lhx1a expansion, percent of treated embryos",100%
same,responders at 0.2 µM,"renal progenitor cells; Danio rerio, percent of embryos with expanded kidney field, 200 nM, read-out: Expansion of Cells (including repeats* and recounts**) 200 nM",3%
same,responders at 0.4 µM,"renal progenitor cells; Danio rerio, percent of embryos with expanded kidney field, 400 nM, read-out: Expansion of Cells (including repeats* and recounts**) 400 nM",14%
same,responders at 0.8 µM,"renal progenitor cells; Danio rerio, percent of embryos with expanded kidney field, 800 nM, read-out: Expansion of Cells (including repeats* and recounts**) 800 nM",49%
same,responders at 1.5 µM,"renal progenitor cells; Danio rerio, percent of embryos with expanded kidney field, 1.5 μM, read-out: Expansion of Cells (including repeats* and recounts**) 1.5 μM",100%
same,responders at 3 µM,"renal progenitor cells; Danio rerio, percent of embryos with expanded kidney field, 3 μM, read-out: Expansion of Cells (including repeats* and recounts**) 3 μM",100%
"CCC(=O)CCCCC[C@@H]1NC(=O)[C@H]2CCCCN2C(=O)[C@H]([C@@H](C)CC)NC(=O)[C@H](Cc2cn(OC)c3ccccc23)NC1=O [apicidin, reference compound]",Dead,zebrafish embryos,36
same,Edemic 1 (E1),zebrafish embryos,0
same,Edemic 2 (E2),zebrafish embryos,0
same,Edemic 3 (E3),zebrafish embryos,0
same,Wild-type (WT),zebrafish embryos,0
same,"Lhx1a expansion caused by analog treatment, 200 nM",renal progenitor cells; [4],−
same,"Lhx1a expansion caused by analog treatment, 400 nM",renal progenitor cells; 10-somite embryos,+/−
same,treated embryos killed,renal progenitor cells; 800 nM,69%
same,"Lhx1a expansion caused by analog treatment, 800 nM",renal progenitor cells; 10-somite embryos,XX^1
same,embryos surviving treatment,"renal progenitor cells; 800 nM, n=36",31%
same,lethality before the 10-somite stage,renal progenitor cells; 1.5 μM,lethal
same,lethality before the 10-somite stage,renal progenitor cells; 3 μM,killed all treated embryos
same,responders at 0.4 µM,"renal progenitor cells; Danio rerio, read-out: lhx1a expansion, percent of treated embryos, 400 nM from 2 hpf, 10-somite embryos",22%
O=C(O)CCCc1ccccc1 [Buphenyl],half-life (t1/2),[2]; following administration,~1 h
same,bioavailability,[2]; taken orally,about 80%
"O=C(O)CCCCc1ccccc1 [5-phenylpentanoic acid, reference compound]",Dead,zebrafish embryos,0
same,Edemic 1 (E1),zebrafish embryos,0
same,Edemic 2 (E2),zebrafish embryos,0
same,Edemic 3 (E3),zebrafish embryos,0
same,Wild-type (WT),zebrafish embryos,36
same,"Lhx1a expansion caused by analog treatment, 3 μM",renal progenitor cells; [5],−
same,"lhx1a expansion, percent of treated embryos",renal progenitor cells; [5],no expansion
N=C(N)c1ccc(N=Nc2c(O)ccc3c2[nH]c2ccccc23)cc1 [NSC357777],size of the kidney field,kidney field,did not affect the size of the kidney field
same,phenotype in initial chemical screen,zebrafish embryos,pericardial edema
COC(=O)CCCSc1ccc(Br)cc1 [VNK-I-290],Dead,zebrafish embryos,0
same,Edemic 1 (E1),zebrafish embryos,27
same,Edemic 2 (E2),zebrafish embryos,1
same,Edemic 3 (E3),zebrafish embryos,0
same,Wild-type (WT),zebrafish embryos,8
same,"Lhx1a expansion caused by analog treatment, 3 μM",renal progenitor cells; [5],+/−
same,responders at 3 µM,renal progenitor cells; [6],74%
"COc1ccc(SCCCC(=O)NO)cc1 [VNK-I-289, 4-[(4-methoxy-phenyl)sulfanyl]-N-hydroxybutanamide]",Dead,zebrafish embryos,0
same,Edemic 1 (E1),zebrafish embryos,20
same,Edemic 2 (E2),zebrafish embryos,0
same,Edemic 3 (E3),zebrafish embryos,0
same,Wild-type (WT),zebrafish embryos,16
same,"Lhx1a expansion caused by analog treatment, 3 μM",renal progenitor cells; [5],+/−
same,responders at 3 µM,renal progenitor cells; [6],31%
